Test results: patent US20250270209A1 (INTERLINE THERAPEUTICS, INC., priority 2022, published 2025)

Assays:
[1] = target: T1, wild type LRRK2 overexpressed in recombinant HEK-293T cells (Homo sapiens, UniProt Q5S007); test: pS935 LRRK2 Cell Assay (HTRF, phospho-LRRK2 Ser935); assay type: cell-based; details: LRRK2 Inhibition, Table 8, 2 hours compound incubation
T1 construct: host or cells: HEK293T (transient transfection with pCMV-LRRK2 WT plasmid)
Procedure, shortened: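 HEK-293T cells transiently transfected with wild-type LRRK2 for 24 h, plated overnight, then treated 2 h at 37° C with compound (top 10 μM, 3-fold, 9 doses, duplicates, 0.2% DMSO). Lysates probed overnight at 23° C by sandwich HTRF for pSer935; 665/615 nm ratio read.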

[2] = target: LRRK2 wild type enzyme (Homo sapiens, UniProt Q5S007); test: Biochemical Assay: LRRK2 TR-FRET (LanthaScreen) kinase assay with LRRKtide substrate; details: LRRK2 Inhibition, Table 8
Procedure, shortened: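 Human wild-type LRRK2 (3 nM) preincubated 15 min with compound (11-point, 3-fold, top 10 μM), then reacted 120 min at 23 °C with 400 nM LRRKtide and 25 μM ATP, pH 8.0. Stopped with EDTA; Tb-anti-pLRRKtide TR-FRET read after 30 min.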

T1 sequence (Q5S007 whole entry): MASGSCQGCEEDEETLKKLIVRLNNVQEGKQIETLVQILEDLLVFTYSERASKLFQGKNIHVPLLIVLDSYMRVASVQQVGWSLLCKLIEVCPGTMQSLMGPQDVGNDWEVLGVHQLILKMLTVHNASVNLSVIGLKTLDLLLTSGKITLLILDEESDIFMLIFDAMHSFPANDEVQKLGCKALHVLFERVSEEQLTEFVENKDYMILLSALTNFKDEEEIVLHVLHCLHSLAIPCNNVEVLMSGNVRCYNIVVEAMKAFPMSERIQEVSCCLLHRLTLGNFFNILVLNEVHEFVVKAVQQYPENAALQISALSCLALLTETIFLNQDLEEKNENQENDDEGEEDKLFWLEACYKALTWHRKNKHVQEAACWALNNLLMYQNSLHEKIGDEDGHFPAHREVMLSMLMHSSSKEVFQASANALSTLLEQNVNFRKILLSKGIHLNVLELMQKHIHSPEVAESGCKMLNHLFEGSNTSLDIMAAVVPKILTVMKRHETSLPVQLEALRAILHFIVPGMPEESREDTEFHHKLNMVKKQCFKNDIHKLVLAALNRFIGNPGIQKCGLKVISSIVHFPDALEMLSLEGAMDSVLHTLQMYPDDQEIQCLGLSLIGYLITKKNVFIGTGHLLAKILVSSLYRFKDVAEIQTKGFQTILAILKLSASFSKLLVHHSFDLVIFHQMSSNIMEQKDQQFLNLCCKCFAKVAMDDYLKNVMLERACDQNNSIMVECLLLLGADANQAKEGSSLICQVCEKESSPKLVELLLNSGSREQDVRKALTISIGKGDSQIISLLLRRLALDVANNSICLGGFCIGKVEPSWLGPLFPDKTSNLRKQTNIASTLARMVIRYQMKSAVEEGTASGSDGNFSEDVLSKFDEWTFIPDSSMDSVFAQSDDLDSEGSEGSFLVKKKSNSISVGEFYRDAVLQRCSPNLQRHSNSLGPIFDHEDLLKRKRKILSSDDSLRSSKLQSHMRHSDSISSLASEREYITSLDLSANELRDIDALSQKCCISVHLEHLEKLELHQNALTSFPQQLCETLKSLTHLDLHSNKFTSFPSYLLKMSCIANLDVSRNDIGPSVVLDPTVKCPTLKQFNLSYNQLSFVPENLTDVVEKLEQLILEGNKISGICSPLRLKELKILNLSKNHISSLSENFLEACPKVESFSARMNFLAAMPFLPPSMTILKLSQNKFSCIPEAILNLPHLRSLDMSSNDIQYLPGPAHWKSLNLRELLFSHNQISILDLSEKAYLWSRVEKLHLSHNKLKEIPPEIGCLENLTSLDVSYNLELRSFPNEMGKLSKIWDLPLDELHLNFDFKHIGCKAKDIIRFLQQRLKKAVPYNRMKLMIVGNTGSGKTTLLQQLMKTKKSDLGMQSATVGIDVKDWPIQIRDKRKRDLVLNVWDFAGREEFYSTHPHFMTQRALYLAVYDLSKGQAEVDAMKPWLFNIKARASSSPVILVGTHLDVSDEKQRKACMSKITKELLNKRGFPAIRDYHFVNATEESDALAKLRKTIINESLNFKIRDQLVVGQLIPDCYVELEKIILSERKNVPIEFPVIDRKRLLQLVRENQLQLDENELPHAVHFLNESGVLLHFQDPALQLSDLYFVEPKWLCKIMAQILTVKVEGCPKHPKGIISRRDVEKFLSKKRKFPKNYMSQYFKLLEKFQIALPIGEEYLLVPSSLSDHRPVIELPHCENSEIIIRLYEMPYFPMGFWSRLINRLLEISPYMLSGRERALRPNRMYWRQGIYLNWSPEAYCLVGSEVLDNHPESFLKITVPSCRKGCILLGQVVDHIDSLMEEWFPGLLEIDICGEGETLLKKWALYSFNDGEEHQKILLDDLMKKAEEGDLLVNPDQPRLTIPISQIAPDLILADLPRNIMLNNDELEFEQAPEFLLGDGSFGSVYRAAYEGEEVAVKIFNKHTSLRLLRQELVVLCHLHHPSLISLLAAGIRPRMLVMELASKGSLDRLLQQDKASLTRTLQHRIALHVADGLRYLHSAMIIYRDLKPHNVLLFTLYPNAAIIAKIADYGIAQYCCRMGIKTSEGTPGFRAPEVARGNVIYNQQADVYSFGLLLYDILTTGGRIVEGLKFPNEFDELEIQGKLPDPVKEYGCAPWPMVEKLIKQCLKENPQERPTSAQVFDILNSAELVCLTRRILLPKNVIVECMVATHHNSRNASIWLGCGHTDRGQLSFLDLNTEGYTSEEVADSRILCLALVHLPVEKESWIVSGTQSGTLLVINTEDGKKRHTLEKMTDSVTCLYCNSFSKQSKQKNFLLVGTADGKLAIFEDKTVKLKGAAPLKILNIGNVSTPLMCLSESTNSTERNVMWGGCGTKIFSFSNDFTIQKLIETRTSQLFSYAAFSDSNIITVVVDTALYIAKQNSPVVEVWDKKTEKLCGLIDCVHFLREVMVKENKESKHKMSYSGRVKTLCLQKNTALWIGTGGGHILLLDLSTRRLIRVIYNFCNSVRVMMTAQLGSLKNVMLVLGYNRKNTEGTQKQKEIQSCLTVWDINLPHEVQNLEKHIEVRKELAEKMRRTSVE
LRRK2 wild type enzyme, sequence (Q5S007 whole entry): as above

Compound	IC50 [1] [nM]	IC50 [2] [nM]
CCNC(=O)Cc1nc2cnc3ccc(C#N)cc3c2n1[C@@H]1CCO[C@H](C)C1 [Compound 6, 2-{8-cyano-1-[(2R,4R)-2-methyloxan-4-yl]-1H-imidazo[4,5-c]quinolin-2-yl}-N-ethylacetamide]	48.7	0.58
C[C@@H]1C[C@H](n2c(CC(=O)N[C@@H]3C[C@H]3c3cccnc3)nc3cnc4ccc(C#N)cc4c32)CCO1 [Compound 365, N-[(1R,2S)-2-(3-pyridyl)cyclopropyl]{3-[(2R,4R)-2-methyltetrahydro-2H-pyran-4-yl]-12-cyano-3,5,8-triazatricyclo[7.4.0.0^2,6]trideca-1(13),2(6),4,7,9,11-hexaen-4-yl}acetamide]	23.3	0.536
C[C@@H]1C[C@H](n2c(CC(=O)NCc3cccnn3)nc3cnc4ccc(Cl)cc4c32)CCO1 [Compound 148, 2-{8-chloro-1-[(2R,4R)-2-methyloxan-4-yl]-1H-imidazo[4,5-c]quinolin-2-yl}-N-[(pyridazin-3-yl)methyl]acetamide]	4.5	0.376
Cc1nc(NC(=O)Cc2nc3cnc4ccc(C#N)cc4c3n2[C@@H]2CCO[C@H](C)C2)no1 [Compound 368, N-(5-methyl-1,2,4-oxadiazol-3-yl){3-[(2R,4R)-2-methyltetrahydro-2H-pyran-4-yl]-12-cyano-3,5,8-triazatricyclo[7.4.0.0^2,6]trideca-1(9),2(6),4,7,10,12-hexaen-4-yl}acetamide]	16.5	0.509
COCCn1ccc(NC(=O)Cc2nc3cnc4ccc(C#N)cc4c3n2[C@@H]2CCO[C@H](C)C2)n1 [Compound 174, 2-{8-cyano-1-[(2R,4R)-2-methyloxan-4-yl]-1H-imidazo[4,5-c]quinolin-2-yl}-N-[1-(2-methoxyethyl)-1H-pyrazol-3-yl]acetamide]	5.35	0.316
COc1ccncc1NC(=O)Cc1nc2cnc3ccc(C#N)cc3c2n1[C@@H]1CCO[C@H](C)C1 [Compound 250, N-(4-methoxy-3-pyridyl){3-[(2R,4R)-2-methyltetrahydro-2H-pyran-4-yl]-12-cyano-3,5,8-triazatricyclo[7.4.0.0^2,6]trideca-1(9),2(6),4,7,10,12-hexaen-4-yl}acetamide]	6.01	0.664
C[C@@H]1C[C@H](n2c([C@@H]3CN(CC4CC4)C(=O)O3)nc3cnc4ccc(C#N)cc4c32)CCO1 [Compound 37, 2-[(5S)-3-(cyclopropylmethyl)-2-oxo-1,3-oxazolidin-5-yl]-1-[(2R,4R)-2-methyloxan-4-yl]-1H-imidazo[4,5-c]quinoline-8-carbonitrile]	3700	53.1
C[C@@H]1C[C@H](n2c(CC(=O)NC3(C)CCOC3)nc3cnc4ccc(Cl)cc4c32)CCO1 (stereo partly drawn) [Compound 333, N-(3-methyltetrahydro-3-furyl){3-[(2R,4R)-2-methyltetrahydro-2H-pyran-4-yl]-12-chloro-3,5,8-triazatricyclo[7.4.0.0^2,6]trideca-1(9),2(6),4,7,10,12-hexaen-4-yl}acetamide]	30.7	1.27
C[C@@H]1C[C@H](n2c(CC(=O)NCC3CCC3)nc3cnc4ccc(C#N)cc4c32)CCO1 [Compound 89, 2-{8-cyano-1-[(2R,4R)-2-methyloxan-4-yl]-1H-imidazo[4,5-c]quinolin-2-yl}-N-(cyclobutylmethyl)acetamide]	34	0.589
COc1ccnc(C)c1NC(=O)Cc1nc2cnc3ccc(C#N)cc3c2n1[C@@H]1CCO[C@H](C)C1 [Compound 227, N-(4-methoxy-2-methyl-3-pyridyl){3-[(2R,4R)-2-methyltetrahydro-2H-pyran-4-yl]-12-cyano-3,5,8-triazatricyclo[7.4.0.0^2,6]trideca-1,4,6,8,10,12-hexaen-4-yl}acetamide]	14.4	0.359
C[C@@H]1C[C@H](n2c(C3CC(=O)N(Cc4ccccn4)C3)nc3cnc4ccc(C#N)cc4c32)CCO1 (mixture of isomers) [Compound 61, 1-[(2R,4R)-2-methyloxan-4-yl]-2-{5-oxo-1-[(pyridin-2-yl)methyl]pyrrolidin-3-yl}-1H-imidazo[4,5-c]quinoline-8-carbonitrile]	89.2	1.09
C[C@@H]1C[C@H](n2c(CC(=O)N[C@@H]3CCOC3)nc3cnc4ccc(Cl)cc4c32)CCO1 [Compound 145, 2-{8-chloro-1-[(2R,4R)-2-methyloxan-4-yl]-1H-imidazo[4,5-c]quinolin-2-yl}-N-[(3R)-oxolan-3-yl]acetamide]	13.5	0.616
C[C@@H]1C[C@H](n2c(CC(=O)NCC3CC3)nc3cnc4ccc(C5CC5)cc4c32)CCO1 [Compound 159, 2-{8-cyclopropyl-1-[(2R,4R)-2-methyloxan-4-yl]-1H-imidazo[4,5-c]quinolin-2-yl}-N-(cyclopropylmethyl)acetamide]	94.1	1.65
CC(=O)NCc1nc2cnc3ccc(C#N)cc3c2n1[C@@H]1CCO[C@H](C)C1 [Compound 23, N-({8-cyano-1-[(2R,4R)-2-methyloxan-4-yl]-1H-imidazo[4,5-c]quinolin-2-yl}methyl)acetamide]	659	4.74
C[C@@H]1C[C@H](n2c(C3CC(=O)N(c4ccn(C)n4)C3)nc3cnc4ccc(C#N)cc4c32)CCO1 (stereo partly drawn) [Compound 100, 2-[1-(1-methyl-1H-pyrazol-3-yl)-5-oxopyrrolidin-3-yl]-1-[(2R,4R)-2-methyloxan-4-yl]-1H-imidazo[4,5-c]quinoline-8-carbonitrile]	143	2.14
C[C@@H]1C[C@H](n2c(CC(=O)NCC3CCCCO3)nc3cnc4ccc(C#N)cc4c32)CCO1 (stereo partly drawn) [Compound 143, 2-{8-cyano-1-[(2R,4R)-2-methyloxan-4-yl]-1H-imidazo[4,5-c]quinolin-2-yl}-N-[(oxan-2-yl)methyl]acetamide]	11.5	0.534
C[C@@H]1C[C@H](n2c(CC(=O)Nc3cncnc3O)nc3cnc4ccc(C#N)cc4c32)CCO1 [Compound 211, N-(4-hydroxy-5-pyrimidinyl){3-[(2R,4R)-2-methyltetrahydro-2H-pyran-4-yl]-12-cyano-3,5,8-triazatricyclo[7.4.0.0^2,6]trideca-1,4,6,8,10,12-hexaen-4-yl}acetamide]	1690	0.484
Cc1nnc(CNC(=O)Cc2nc3cnc4ccc(C#N)cc4c3n2[C@@H]2CCO[C@H](C)C2)o1 [Compound 257, N-[(5-methyl-1,3,4-oxadiazol-2-yl)methyl]{3-[(2R,4R)-2-methyltetrahydro-2H-pyran-4-yl]-12-cyano-3,5,8-triazatricyclo[7.4.0.0^2,6]trideca-1(9),2(6),4,7,10,12-hexaen-4-yl}acetamide]	97	0.451
CCOc1ccc(NC(=O)Cc2nc3cnc4ccc(C#N)cc4c3n2[C@@H]2CCO[C@H](C)C2)cn1 [Compound 274, N-(6-ethoxy-3-pyridyl){3-[(2R,4R)-2-methyltetrahydro-2H-pyran-4-yl]-12-cyano-3,5,8-triazatricyclo[7.4.0.0^2,6]trideca-1,4,6,8,10,12-hexaen-4-yl}acetamide]	7.97	0.445
C[C@@H]1C[C@H](n2c(C3CCN(S(C)(=O)=O)CC3)nc3cnc4ccc(C#N)cc4c32)CCO1 [Compound 122, 2-(1-methanesulfonylpiperidin-4-yl)-1-[(2R,4R)-2-methyloxan-4-yl]-1H-imidazo[4,5-c]quinoline-8-carbonitrile]	546	2.99
C[C@@H]1C[C@H](n2c(CC(=O)Nc3ccno3)nc3cnc4ccc(C#N)cc4c32)CCO1 [Compound 165, 2-{8-cyano-1-[(2R,4R)-2-methyloxan-4-yl]-1H-imidazo[4,5-c]quinolin-2-yl}-N-(1,2-oxazol-5-yl)acetamide]	10.6	0.789
C[C@@H]1C[C@H](n2c(CC(=O)Nc3ccccc3)nc3cnc4ccc(C#N)cc4c32)CCO1 [Compound 330, N-phenyl{3-[(2R,4R)-2-methyltetrahydro-2H-pyran-4-yl]-12-cyano-3,5,8-triazatricyclo[7.4.0.0^2,6]trideca-1(9),2(6),4,7,10,12-hexaen-4-yl}acetamide]	4.68	0.507
C[C@@H]1C[C@H](n2c(C3CC(=O)N(Cc4cccnc4)C3)nc3cnc4ccc(C#N)cc4c32)CCO1 (single isomer, unassigned) [Compound 30, 1-[(2R,4R)-2-methyloxan-4-yl]-2-[(3R*)-5-oxo-1-[(pyridin-3-yl)methyl]pyrrolidin-3-yl]-1H-imidazo[4,5-c]quinoline-8-carbonitrile]	41.3	0.567
Cc1ccnc(C)c1NC(=O)Cc1nc2cnc3ccc(C#N)cc3c2n1[C@@H]1CCO[C@H](C)C1 [Compound 256, N-(2,4-dimethyl-3-pyridyl){3-[(2R,4R)-2-methyltetrahydro-2H-pyran-4-yl]-12-cyano-3,5,8-triazatricyclo[7.4.0.0^2,6]trideca-1,4,6,8,10,12-hexaen-4-yl}acetamide]	15.1	0.485
C[C@@H]1C[C@H](n2c(CC(=O)N[C@@H]3C[C@@H]3F)nc3cnc4ccc(C#N)cc4c32)CCO1 [Compound 290, N-[(1R,2S)-2-fluorocyclopropyl]{3-[(2R,4R)-2-methyltetrahydro-2H-pyran-4-yl]-12-cyano-3,5,8-triazatricyclo[7.4.0.0^2,6]trideca-1,4,6,8,10,12-hexaen-4-yl}acetamide]	33.4	0.567
